From patent US7629344B2, “3-(imidazolyl)-pyrazolo[3,4-b]pyridines” (ChemoCentryx, Inc., priority 2007, dated 2009)

target: T1, CCR1 (Homo sapiens, UniProt P32246); assay: Chemotaxis assay (inhibition of CCR1 mediated migration); assay type: cell-based; conditions: THP-1 or monocyte cells; CCR1 chemokine ligand (MIP-1α, CCL15/Leukotactin); 1-2 hours at 37° C.
T1 construct: host or cells: THP-1 cells or freshly isolated monocytes
T1 sequence (P32246 1-355): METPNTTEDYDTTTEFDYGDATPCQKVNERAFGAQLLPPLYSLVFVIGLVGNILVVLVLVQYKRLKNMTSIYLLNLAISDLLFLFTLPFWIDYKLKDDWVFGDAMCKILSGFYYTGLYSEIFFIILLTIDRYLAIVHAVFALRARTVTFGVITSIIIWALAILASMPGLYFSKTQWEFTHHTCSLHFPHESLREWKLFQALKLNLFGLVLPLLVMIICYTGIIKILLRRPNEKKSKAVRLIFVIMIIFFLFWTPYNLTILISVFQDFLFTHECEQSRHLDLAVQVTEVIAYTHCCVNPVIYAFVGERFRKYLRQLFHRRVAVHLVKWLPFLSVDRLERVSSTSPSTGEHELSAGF
Description: THP-1 cells were obtained from ATCC (TIB-202) and cultured as a suspension in RPMI-1640 medium supplemented with 2 mM L-glutamine, 1.5 g/L sodium bicarbonate, 4.5 g/L glucose, 10 mM HEPES, 1 mM sodium pyruvate, 0.05% 2-mercaptoethanol and 10% FBS. Cells were grown under 5% CO2/95% air, 100% humidity at 37° C. and subcultured twice weekly at 1:5 (cells were cultured at a density range of 2×10^5 to 2×10^6 cells/mL) and harvested at 1×10^6 cells/mL. THP-1 cells express CCR1 and can be used in CCR1 binding and functional assays. • 2. Chemotaxis Assays
Chemotaxis assays were performed using 5 μm pore polycarbonate, polyvinylpyrrolidone-coated filters in 96-well chemotaxis chambers (Neuroprobe; Gaithersburg, Md.) using chemotaxis buffer (Hank's balanced salt solution (HBSS) and 1% FBS). CCR1 chemokine ligands (i.e., MIP-1α, CCL15/Leukotactin; R&D Systems; Minneapolis, Minn.) are use to evaluate compound mediated inhibition of CCR1 mediated migration. Other chemokines (i.e., SDF-1α; R&D Systems; Minneapolis, Minn.) are used as specificity controls. The lower chamber was loaded with 29 μl of chemokine (i.e., 0.1 nM CCL15/Leukotactin) and varying amounts of compound; the top chamber contained 100,000 THP-1 or monocyte cells in 20 μl. The chambers were incubated 1-2 hours at 37° C., and the number of cells in the lower chamber quantified either by direct cell counts in five high powered fields per well or by the CyQuant assay (Molecular Probes), a fluorescent dye method that measures nucleic acid content and microscopic observation. • B. Identification of Inhibitors of CCR1
One of the primary functions of chemokines is their ability to mediate the migration of chemokine receptor-expressing cells, such as white blood cells. To confirm that a compound of interest inhibited not only CCR1 specific binding and signaling (at least as determined by calcium mobilization assays), but also CCR1 mediated migration, a chemotaxis assay was employed. THP-1 myelomonocytic leukemia cells, which resemble monocytes, as wells as freshly isolated monocytes, were used as targets for chemoattraction by CCR1 chemokine ligands (i.e., MIP-1α, CCL15/leukotactin). Cells were placed in the top compartment of a microwell migration chamber, while MIP-1α (or other potent CCR1 chemokine ligand) and increasing concentrations of a compound of interest was loaded in the lower chamber. […] In this assay, the amount of compound was varied; while cell number and chemokine agonist concentrations were held constant. After the chemotaxis chambers were incubated 1-2 hours at 37° C., the responding cells in the lower chamber were quantified by labeling with the CyQuant assay (Molecular Probes), a fluorescent dye method that measures nucleic acid content, and by measuring with a Spectrafluor Plus (Tecan). The computer program Prism from GraphPad, Inc. (San Diego, Calif.) was used to calculate IC50 values. IC50 values are those compound concentrations required to inhibit the number of cells responding to a CCR1 agonist by 50%. • 1. In Vivo Efficacy • a) Rabbit Model of Destructive Joint Inflammation

Row | SMILES | IC50
1 | COc1cc(N2CCN(C(=O)Cn3nc(-c4ncc[nH]4)c4cccnc43)[C@@H](C)C2)c(F)cc1Cl [1.006, 1-[(S)-4-(4-Chloro-2-fluoro-5-methoxyphenyl)-2-methylpiperazin-1-yl]-2-[3-(1H-imidazol-2-yl)pyrazolo[3,4-b]pyridin-1-yl]ethanone] | ≤ 100 nM
2 | COc1cc(N2CCN(C(=O)Cn3nc(-c4ncc[nH]4)c4cccnc43)C[C@H]2C)ccc1Cl [1.007, 1-[(R)-4-(4-Chloro-3-methoxyphenyl)-3-methylpiperazin-1-yl]-2-[3-(1H-imidazol-2-yl)-pyrazolo[3,4-b]pyridin-1-yl]ethanone] | ≤ 100 nM
3 | CCOc1cc(N2CCN(C(=O)Cn3nc(-c4ncc[nH]4)c4cccnc43)CC2)ccc1Cl [1.003, 1-[4-(4-Chloro-3-ethoxyphenyl)piperazin-1-yl]-2-[3-(1H-imidazol-2-yl)pyrazolo[3,4-b]pyridin-1-yl]ethanone] | ≤ 100 nM
4 | COc1cc(N2CCN(C(=O)Cn3nc(-c4ncc[nH]4)c4cccnc43)[C@H](C)C2)ccc1Cl [1.009, 1-[(R)-4-(4-Chloro-3-methoxyphenyl)-2-methylpiperazin-1-yl]-2-[3-(1H-imidazol-2-yl)-pyrazolo[3,4-b]pyridin-1-yl]ethanone] | ≤ 100 nM
5 | COc1cc(N2CCN(C(=O)Cn3nc(-c4ncc[nH]4)c4cccnc43)C[C@@H]2C)ccc1Cl [1.008, 1-[(S)-4-(4-Chloro-3-methoxyphenyl)-3-methylpiperazin-1-yl]-2-[3-(1H-imidazol-2-yl)-pyrazolo[3,4-b]pyridin-1-yl]ethanone] | ≤ 100 nM
6 | O=C(Cn1nc(-c2ncc[nH]2)c2cccnc21)N1CCN(c2cc(OCCF)c(Cl)cc2F)CC1 [1.002, 1-{4-[4-Chloro-2-fluoro-5-(2-fluoroethoxy)-phenyl]piperazin-1-yl}-2-[3-(1H-imidazol-2-yl)-pyrazolo[3,4-b]pyridin-1-yl]ethanone] | ≤ 100 nM
7 | COc1cc(N2CCN(C(=O)Cn3nc(-c4ncc[nH]4)c4cccnc43)CC2)c(F)cc1Cl [1.004, 1-[4-(4-Chloro-2-fluoro-5-methoxyphenyl)piperazin-1-yl]-2-[3-(1H-imidazol-2-yl)-pyrazolo[3,4-b]pyridin-1-yl]ethanone] | ≤ 100 nM
8 | COc1cc(N2CCN(C(=O)Cn3nc(-c4ncc[nH]4)c4cccnc43)[C@@H](C)C2)ccc1Cl [1.005, 1-[(S)-4-(4-Chloro-3-methoxyphenyl)-2-methylpiperazin-1-yl]-2-[3-(1H-imidazol-2-yl)-pyrazolo[3,4-b]pyridin-1-yl]ethanone] | ≤ 100 nM
9 | CCOc1cc(N2CCN(C(=O)Cn3nc(-c4ncc[nH]4)c4cccnc43)CC2)c(F)cc1Cl [1.001, 1-[4-(4-Chloro-5-ethoxy-2-fluorophenyl)piperazin-1-yl]-2-[3-(1H-imidazol-2-yl)-pyrazolo[3,4-b]pyridin-1-yl]ethanone] | ≤ 100 nM
10 | COc1cc(N2CCN(C(=O)Cn3nc(-c4ncc[nH]4)c4cccnc43)CC2)ccc1Cl [1.016, 1-[4-(4-Chloro-3-methoxy-phenyl)-piperazin-1-yl]-2-[3-(1H-imidazol-2-yl)-pyrazolo[3,4-b]pyridin-1-yl]-ethanone] | ≤ 100 nM

Next, values leading:

Row | IC50 | SMILES
11 | ≤ 100 nM | O=C(Cn1nc(-c2ncc[nH]2)c2cccnc21)N1CCN(c2ccc(Cl)c(OCCF)c2)CC1 [1.011, 2-(3-(1H-imidazol-2-yl)-1H-pyrazolo[3,4-b]pyridin-1-yl)-1-(4-(3-(2-fluoroethoxy)-4-chlorophenyl)piperazin-1-yl)ethanone]
12 | ≤ 100 nM | Cc1cc(N2CCN(C(=O)Cn3nc(-c4ncc[nH]4)c4cccnc43)CC2)ccc1Cl [1.013, 1-[4-(4-Chloro-3-methyl-phenyl)-piperazin-1-yl]-2-[3-(1H-imidazol-2-yl)-pyrazolo[3,4-b]pyridin-1-yl]-ethanone]
13 | ≤ 100 nM | C[C@H]1CN(c2ccc(Cl)c(OCCF)c2)CCN1C(=O)Cn1nc(-c2ncc[nH]2)c2cccnc21 [1.012, 2-(3-(1H-imidazol-2-yl)-1H-pyrazolo[3,4-b]pyridin-1-yl)-1-((S)-4-(3-(2-fluoroethoxy)-4-chlorophenyl)-2-methylpiperazin-1-yl)ethanone]
14 | > 100 nM | O=C(Cn1nc(-c2ncc[nH]2)c2cccnc21)N1CCN(c2ccc(Cl)c(C(F)(F)F)c2)CC1 [1.014, 1-[4-(4-Chloro-3-trifluoromethyl-phenyl)-piperazin-1-yl]-2-[3-(1H-imidazol-2-yl)-pyrazolo[3,4-b]pyridin-1-yl]-ethanone]
15 | ≤ 100 nM | COc1cc(N2CCN(C(=O)Cn3nc(-c4nccn4C)c4cccnc43)CC2)ccc1Cl [1.017, 1-[4-(4-Chloro-3-methoxy-phenyl)-piperazin-1-yl]-2-[3-(1-methyl-1H-imidazol-2-yl)-pyrazolo[3,4-b]pyridin-1-yl]-ethanone]
16 | ≤ 100 nM | CCOc1cc(N2CCN(C(=O)Cn3nc(-c4ncc[nH]4)c4cccnc43)[C@@H](C)C2)ccc1Cl [1.010, 2-(3-(1H-imidazol-2-yl)-1H-pyrazolo[3,4-b]pyridin-1-yl)-1-((S)-4-(4-chloro-3-ethoxyphenyl)-2-methylpiperazin-1-yl)ethanone]
17 | > 100 nM | O=C(Cn1nc(-c2ncc[nH]2)c2cccnc21)N1CCN(c2ccc(Cl)c(OC(F)(F)F)c2)CC1 [1.015, 1-[4-(4-Chloro-3-trifluoromethoxy-phenyl)-piperazin-1-yl]-2-[3-(1H-imidazol-2-yl)-pyrazolo[3,4-b]pyridin-1-yl]-ethanone]

tested on: not listed separately; assay: Pharmacokinetic tests conducted in animals; assay type: in vivo; conditions: over related compounds (U.S. Publication No. 2007/0010524A1)

Row | SMILES | AUC | Cmax | oral bioavailability
18 | COc1cc(N2CCN(C(=O)Cn3nc(-c4ncc[nH]4)c4cccnc43)CC2)ccc1Cl [1.016, 1-[4-(4-Chloro-3-methoxy-phenyl)-piperazin-1-yl]-2-[3-(1H-imidazol-2-yl)-pyrazolo[3,4-b]pyridin-1-yl]-ethanone] | increased | increased | improved

tested on: Female New Zealand rabbits; assay: Rabbit model of destructive joint inflammation (rabbit LPS study); assay type: in vivo; conditions: intra-articular LPS (10 ng) in both knees; dosed orally 2 hours before and 4 hours after LPS; knees lavaged sixteen hours after LPS
Description: A rabbit LPS study was conducted essentially as described in Podolin, et al. J. Immunol. 169(11):6435-6444 (2002). Female New Zealand rabbits (approximately 2 kilograms) were treated intra-articularly in both knees with LPS (10 ng). The compound of interest, for example 1.016, (formulated in 1% methocel) or vehicle (1% methocel) was dosed orally at a 5 ml/kg dose volume at two times (2 hours before the intra-articular LPS injection and 4 hours after the intra-articular LPS injection). Sixteen hours after the LPS injection, knees were lavaged and cells counts were performed. Beneficial effects of treatment were determined by reduction in the number of inflammatory cells recruited to the inflamed synovial fluid of the knee joints.

Row | SMILES | number of inflammatory cells recruited to the inflamed synovial fluid of the knee joints
19 | COc1cc(N2CCN(C(=O)Cn3nc(-c4ncc[nH]4)c4cccnc43)CC2)ccc1Cl [1.016, 1-[4-(4-Chloro-3-methoxy-phenyl)-piperazin-1-yl]-2-[3-(1H-imidazol-2-yl)-pyrazolo[3,4-b]pyridin-1-yl]-ethanone] | significant reduction

tested on: not given; assay: not given; conditions: not given

Row | SMILES | melting point
20 | COc1cc(N2CCN(C(=O)Cn3nc(-c4ncc[nH]4)c4cccnc43)CC2)ccc1Cl [1.016, 1-[4-(4-Chloro-3-methoxy-phenyl)-piperazin-1-yl]-2-[3-(1H-imidazol-2-yl)-pyrazolo[3,4-b]pyridin-1-yl]-ethanone] | 149 to 152 °C
